The values that follow come from paper PMC8092108, “Mycophenolate suppresses inflammation by inhibiting prostaglandin synthases: a study of molecular and experimental drug repurposing” (PeerJ, 2021).

As a reminder, the IC50 is the concentration that inhibits the measured activity by half.

Data set [1] has as its system 12-LOX. Description: LOX inhibitor screening kit. The data set is classed as biochemical. How it is done: The inhibitory effects of the drugs MMF and MPA on COX-1 and COX-2 were measured using the COX inhibitor screening assay kit and LOX inhibitor screening kit. The assay was performed according to the manufacturer’s directions and previously described methods ([Chowdhury et al., 2008]; [Lee et al., 2004]). Briefly, the reaction buffer (Tris–HCl buffer, pH 8.0) containing 5 mM EDTA, 2 mM phenol, and 1 µM hematin was measured into test tubes. The test drugs were dissolved in dimethyl sulfoxide and added to the tubes to final concentrations of […]. COX-1 or COX-2 was added to the test tubes and preincubated for 10 min at 37 °C. Arachidonic acid was then added, and the tubes were incubated for 2 min at 37 °C. The enzyme immunoassay was used to measure the concentration of the product prostaglandin F2α (PGF2α). The estimated values were determined after comparison to the predetermined standard curve. The IC50 was determined after three different experiments. The selectivity index was calculated from Eq. (1): […]

The test system of data set [2] is carrageenan-induced paw edema. The data set is described as follows: Carrageenan-induced rat paw edema test. The format is in vivo. Particulars: for Rat paw edema after treatment: MMF 12.5–50 mg/kg, indomethacin or celecoxib 10 mg/kg oral; for Rat paw size: individual rats 1-7. How it is done: The in vivo assay was performed by the rat paw edema inhibition test as previously described ([Morris, 2003]; [Winter, Risley & Nuss, 1962]). Forty-nine male adult albino rats weighing […] were obtained from the Animal Breeding Center at the College of Veterinary Medicine, King Faisal University, and were randomly divided into seven groups (n = 7/group). The animal groups included the nontreated control group, carrageenan group, and five groups receiving carrageenan and treated with either indomethacin, celecoxib, or MMF at three doses (12.5, 25, and 50 mg/kg). All rats were allowed free access to food and water. All cages were kept in controlled rooms at 25 °C and exposed to a 12-h light/dark cycle. MMF and two reference drugs, indomethacin and celecoxib, were suspended in 1% NaCMC in normal saline. A 1% carrageenan solution in normal saline was injected into the subplantar area of the right hind paw of rats. One hour before injection of carrageenan, rats were given either indomethacin or celecoxib at a dose rate of 10 mg/kg or MMF at three dose levels of 12.5, 25, and 50 mg/kg by oral administration. […] The measurements were blind to avoid measurement bias. The King Faisal University Ethics Committee (approval no. KFU-REC/2020-10-11) approved all animal experiments. Since no samples were taken from rats, there were no anesthesia procedures. The size of the hind paw was only measured in non-anesthetized rats. At the end of the experiment, all rats were euthanized according to the regulations of the King Faisal University Ethics Committee by an overdose of pentobarbital (200 mg/kg IP) and decapitation. The effect of MMF at different doses on relieving rat paw edema was compared with the control and standard NSAID-treated groups. Significant differences were determined by one-way analysis of variance (ANOVA) with Tukey’s post hoc test. All steps were implemented using GraphPad prism software (GraphPad Software, La Jolla, CA, USA).
(In general: The carrageenan paw model is a standard test of acute inflammation.)

Data set [3] has as its target T1, COX-1 (Ovis aries, UniProt P05979).
T1 construct: purchased
T1 sequence (P05979 25-600): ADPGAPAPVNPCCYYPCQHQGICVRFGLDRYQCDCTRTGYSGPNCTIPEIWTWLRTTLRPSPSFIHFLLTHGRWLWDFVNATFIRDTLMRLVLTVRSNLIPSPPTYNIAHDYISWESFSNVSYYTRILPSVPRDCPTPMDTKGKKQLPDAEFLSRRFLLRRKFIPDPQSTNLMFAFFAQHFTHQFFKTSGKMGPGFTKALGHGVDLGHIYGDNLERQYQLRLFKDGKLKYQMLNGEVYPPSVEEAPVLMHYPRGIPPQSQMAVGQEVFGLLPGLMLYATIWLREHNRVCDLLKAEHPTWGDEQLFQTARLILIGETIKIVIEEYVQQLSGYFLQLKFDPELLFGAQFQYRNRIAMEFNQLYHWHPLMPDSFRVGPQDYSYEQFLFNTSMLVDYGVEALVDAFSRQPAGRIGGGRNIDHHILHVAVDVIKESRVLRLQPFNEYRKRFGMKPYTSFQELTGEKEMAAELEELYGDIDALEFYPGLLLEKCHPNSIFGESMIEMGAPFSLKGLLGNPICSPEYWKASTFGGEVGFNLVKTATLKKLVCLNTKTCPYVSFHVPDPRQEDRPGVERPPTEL
The data set is described as follows: COX inhibitor screening assay, COX-1. The data set is classed as biochemical. Here is the method:
(§1) The inhibitory effects of the drugs MMF and MPA on COX-1 and COX-2 were measured using the COX inhibitor screening assay kit and LOX inhibitor screening kit. […] Briefly, the reaction buffer (Tris–HCl buffer, pH 8.0) containing 5 mM EDTA, 2 mM phenol, and 1 µM hematin was measured into test tubes. The test drugs were dissolved in dimethyl sulfoxide and added to the tubes to final concentrations of […]. COX-1 or COX-2 was added to the test tubes and preincubated for 10 min at 37 °C. Arachidonic acid was then added, and the tubes were incubated for 2 min at 37 °C. The enzyme immunoassay was used to measure the concentration of the product prostaglandin F2α (PGF2α). The estimated values were determined after comparison to the predetermined standard curve. The IC50 was determined after three different experiments. The selectivity index was calculated from Eq. (1):
(§2) (1) Selectivity index=IC50COX−1/IC50COX−2

Data set [4] addresses T2, COX-2 (Homo sapiens, UniProt P35354).
T2 construct: purchased
T2 sequence (P35354 18-604): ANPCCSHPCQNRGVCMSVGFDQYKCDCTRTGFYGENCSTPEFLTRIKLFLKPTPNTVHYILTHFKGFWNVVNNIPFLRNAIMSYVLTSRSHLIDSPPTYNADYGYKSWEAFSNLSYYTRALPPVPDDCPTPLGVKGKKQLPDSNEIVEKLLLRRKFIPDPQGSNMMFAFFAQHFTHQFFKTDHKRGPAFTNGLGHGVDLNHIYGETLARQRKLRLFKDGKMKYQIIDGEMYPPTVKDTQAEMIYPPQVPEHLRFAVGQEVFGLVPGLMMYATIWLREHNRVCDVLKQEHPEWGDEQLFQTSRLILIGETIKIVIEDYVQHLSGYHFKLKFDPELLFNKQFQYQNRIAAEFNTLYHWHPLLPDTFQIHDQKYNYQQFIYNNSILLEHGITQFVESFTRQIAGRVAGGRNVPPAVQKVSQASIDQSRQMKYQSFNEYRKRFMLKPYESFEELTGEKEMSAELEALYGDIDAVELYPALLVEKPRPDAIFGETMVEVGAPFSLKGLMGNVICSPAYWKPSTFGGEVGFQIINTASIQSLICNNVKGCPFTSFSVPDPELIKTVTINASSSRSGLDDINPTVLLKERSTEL
Description: COX inhibitor screening assay, COX-2. The data set is classed as biochemical. How it is done:
as §1, §2

For data set [5] the following is noted: cited from earlier work.

Values joined by “and” are separate entries in the source; they are usually repeats but may differ in a detail not shown here. Equal values may be shown once. Read-outs that look alike come from different tables or passages of the source.

Turning to `O=c1c(O)c(-c2ccc(O)c(O)c2)oc2cc(O)cc(O)c12` [Quercetin], the 50% inhibitory concentration (IC50) in data set [1] (read-out: IC50 12-LOX) was found to be 3.33 µM.
Consider `COc1ccc2c(c1)c(CC(=O)O)c(C)n2C(=O)c1ccc(Cl)cc1` [Indomethacin, indomethacin], for which the “Rat paw edema after treatment” value in data set [2] was “significantly relieved”. For the same molecule, the Rat paw size in data set [2] (indomethacin 10 mg/kg oral, Time (h) 1) was 0.7 cm (4×) and 0.75 cm (3×); in data set [2] (indomethacin 10 mg/kg oral, Time (h) 2), 0.7 cm and 0.6 cm (3×) and 0.55 cm (2×) and 0.5 cm; in data set [2] (indomethacin 10 mg/kg oral, Time (h) 3), 0.45 cm and 0.43 cm and 0.4 cm (2×) and 0.42 cm and 0.5 cm and 0.44 cm; in data set [2] (indomethacin 10 mg/kg oral, Time (h) 4), 0.35 cm and 0.38 cm and 0.4 cm (3×) and 0.39 cm and 0.37 cm; in data set [2] (indomethacin 10 mg/kg oral, Time (h) 5) it was 0.35 cm (2×) and 0.37 cm (3×) and 0.4 cm (2×); in data set [2] (indomethacin 10 mg/kg oral, Time (h) 6) it was 0.55 cm and 0.52 cm and 0.5 cm and 0.65 cm and 0.6 cm (2×) and 0.59 cm.
With `COc1c(C)c2c(c(O)c1C/C=C(\C)CCC(=O)O)C(=O)OC2` [Mycophenolic acid, mycophenolic acid], the IC50 in data set [3] came out at 4.62 µM; in data set [4], 0.14 µM; in data set [1] (printed as 5-LOX in abstract and b38, read-out: IC50 5-LOX) it was 4.49 µM; in data set [1] (read-out: IC50 12-LOX), 4.49 µM. The molecule further yielded a Selectivity index in data set [4] (IC50 COX-1/IC50 COX-2) of 33.00. The “Time to maximum serum MPA concentration” value in data set [5] (after MMF administration, ref Park, 2011) is 60 to 90 min. Besides, the “Clinically attainable MPA concentration” value in data set [5] (ref Margolis et al., 1999) was 1 to 10 µM.
Turning to `Cc1ccc(-c2cc(C(F)(F)F)nn2-c2ccc(S(N)(=O)=O)cc2)cc1` [Celecoxib, celecoxib], the “Rat paw edema after treatment” value in data set [2] is on record as “significantly relieved”. The Rat paw size was 0.75 cm (4×) and 0.71 cm and 0.7 cm and 0.73 cm in data set [2] (celecoxib 10 mg/kg oral, Time (h) 1); 0.75 cm and 0.65 cm (2×) and 0.7 cm and 0.67 cm and 0.68 cm and 0.6 cm in data set [2] (celecoxib 10 mg/kg oral, Time (h) 2); 0.55 cm and 0.45 cm and 0.5 cm (3×) and 0.49 cm and 0.4 cm in data set [2] (celecoxib 10 mg/kg oral, Time (h) 3); 0.5 cm (2×) and 0.48 cm and 0.45 cm (3×) and 0.4 cm in data set [2] (celecoxib 10 mg/kg oral, Time (h) 4); 0.4 cm (3×) and 0.45 cm and 0.43 cm and 0.38 cm and 0.42 cm in data set [2] (celecoxib 10 mg/kg oral, Time (h) 5); 0.6 cm (2×) and 0.56 cm and 0.55 cm (2×) and 0.65 cm and 0.5 cm in data set [2] (celecoxib 10 mg/kg oral, Time (h) 6).
